The results in this text go back to BindingDB's records for doi:10.1021/jm030452x (University of Arizona, 2004).

In the first assay the target is Melanocyte-stimulating hormone receptor (Rana pipiens). Kind of assay: Inhibition of 1 nM alpha melanocortin stimulating hormone (MSH) from frog skin.
For the molecule `C[C@H](O)[C@@H](NC(=O)[C@H]1CSSC[C@H](NC(=O)[C@@H](N)Cc2ccccc2)C(=O)N[C@@H](Cc2c[nH]cn2)C(=O)N2Cc3ccccc3C[C@H]2C(=O)N[C@@H](CCCN=C(N)N)C(=O)N[C@H](Cc2c[nH]c3ccccc23)C(=O)N1)C(N)=O` [(2R,3S)-2-{[(3S,6R,9S,14R,17S)-14-[(2S)-2-amino-3-phenylpropanamido]-3-{3-[(diaminomethylidene)amino]propyl}-17-(1H-imidazol-4-ylmethyl)-6-(1H-indol-3-ylmethyl)-1,4,7,15,18-pentaoxo-1H,2H,3H,4H,5H,6H,7H,8H,9H,10H,13H,14H,15H,16H,17H,18H,20H,25H,25aH-isoquinolino[3,2-m]1,2-dithia-5,8,11,14,17-pentaazacycloicosan-9-yl]formamido}-3-hydroxybutanamide], the 50% inhibitory concentration (IC50) turned out to be 1 µM.

`C[C@@H](O)[C@H](NC(=O)[C@H]1NC(=O)[C@H]([C@@H](C)O)NC(=O)[C@H](CCCNC(=N)N)NC(=O)[C@@H](Cc2c[nH]c3ccccc23)NC(=O)[C@H](Cc2ccc(I)cc2)NC(=O)[C@@H](NC(=O)[C@H](N)Cc2ccccc2)CSSC1(C)C)C(N)=O` [1N-(1-carbamoyl-2-hydroxypropyl)-15-[3-amino(imino)methylaminopropyl]-6-(1-amino-2-phenylethylcarboxamido)-18-(1-hydroxyethyl)-12-(1H-3-indolylmethyl)-9-(4-iodobenzyl)-2,2-dimethyl-7,10,13,16,19-pentaoxo-3,4-dithia-8,11,14,17,20-pentaazacycloicosane] returned a half-inhibitory concentration (IC50) of 0.1 µM.

On to `C[C@@H](O)[C@H](NC(=O)[C@H]1NC(=O)[C@H](Cc2c[nH]c3ccccc23)NC(=O)[C@H](CCCN=C(N)N)NC(=O)[C@@H](Cc2c[nH]c3ccccc23)NC(=O)[C@H](Cc2ccc(O)cc2)NC(=O)[C@@H](NC(=O)[C@H](N)Cc2ccccc2)CSSC1(C)C)C(N)=O` [1N-(1-carbamoyl-2-hydroxypropyl)-15-[3-amino(imino)methylaminopropyl]-6-(1-amino-2-phenylethylcarboxamido)-9-(4-hydroxybenzyl)-12,18-di(1H-3-indolylmethyl)-2,2-dimethyl-7,10,13,16,19-pentaoxo-3,4-dithia-8,11,14,17,20-pentaazacycloicosane-1-carboxami], for which half-maximal inhibition (IC50) required 1 µM.

Molecule `C[C@@H](O)[C@H](NC(=O)[C@H]1NC(=O)[C@H](CO)NC(=O)[C@H](CCCNC(=N)N)NC(=O)[C@@H](Cc2c[nH]c3ccccc23)NC(=O)[C@H](Cc2ccc(O)cc2)NC(=O)[C@@H](NC(=O)[C@H](N)Cc2ccccc2)CSSC1(C)C)C(N)=O` [1N-(1-carbamoyl-2-hydroxypropyl)-15-[3-amino(imino)methylaminopropyl]-6-(1-amino-2-phenylethylcarboxamido)-9-(4-hydroxybenzyl)-18-hydroxymethyl-12-(1H-3-indolylmethyl)-2,2-dimethyl-7,10,13,16,19-pentaoxo-3,4-dithia-8,11,14,17,20-pentaazacycloicosane] gave a concentration for half-maximal inhibition (IC50) of 1 µM.

In turn, `C[C@@H](O)[C@H](NC(=O)[C@H]1NC(=O)[C@H](Cc2c[nH]c3ccccc23)NC(=O)[C@H](CCCN=C(N)N)NC(=O)[C@@H](Cc2c[nH]c3ccccc23)NC(=O)[C@H](Cc2ccccc2)NC(=O)[C@@H](NC(=O)[C@H](N)Cc2ccccc2)CSSC1(C)C)C(N)=O` [1N-(1-carbamoyl-2-hydroxypropyl)-15-[3-amino(imino)methylaminopropyl]-6-(1-amino-2-phenylethylcarboxamido)-9-benzyl-12,18-di(1H-3-indolylmethyl)-2,2-dimethyl-7,10,13,16,19-pentaoxo-3,4-dithia-8,11,14,17,20-pentaazacycloicosane-1-carboxamide] returned an IC50 of 1 µM.

In the next assay the target is Melanocortin receptor 1 (Rana pipiens). Kind of assay: Effective concentration required for maximum agonist response at melanocortin 1 receptor from frog skin.
For `C[C@@H](O)[C@H](NC(=O)[C@H]1CSSC[C@H](NC(=O)[C@H](N)Cc2ccccc2)C(=O)N[C@@H](Cc2cnc[nH]2)C(=O)N[C@@H](Cc2ccccc2)C(=O)N[C@@H](CCCNC(=N)N)C(=O)N[C@H](Cc2c[nH]c3ccccc23)C(=O)N1)C(N)=O` [1N-(1-carbamoyl-2-hydroxypropyl)-15-[3-amino(imino)methylaminopropyl]-6-(1-amino-2-phenylethylcarboxamido)-12-benzyl-9-(1H-5-imidazolylmethyl)-18-(1H-3-indolylmethyl)-7,10,13,16,19-pentaoxo-3,4-dithia-8,11,14,17,20-pentaazacycloicosane-1-carboxam], the concentration for a half-maximal effect (EC50) is 0.01 µM.

`C[C@@H](O)[C@H](NC(=O)[C@@H]1CSSC[C@H](NC(=O)[C@H](N)Cc2ccccc2)C(=O)N[C@@H](Cc2cnc[nH]2)C(=O)N[C@@H](Cc2cccc3ccccc23)C(=O)N[C@@H](CCCNC(=N)N)C(=O)N[C@H](Cc2c[nH]c3ccccc23)C(=O)N1)C(N)=O` [1N-(1-carbamoyl-2-hydroxypropyl)-15-[3-amino(imino)methylaminopropyl]-6-(1-amino-2-phenylethylcarboxamido)-9-(1H-5-imidazolylmethyl)-18-(1H-3-indolylmethyl)-12-(1-naphthylmethyl)-7,10,13,16,19-pentaoxo-3,4-dithia-8,11,14,17,20-pentaazacycloicosan] showed an EC50 of 5 µM.

The molecule `C[C@@H](O)[C@H](NC(=O)[C@@H]1CCSSC[C@H](NC(=O)[C@H](N)Cc2ccccc2)C(=O)N[C@@H](Cc2cnc[nH]2)C(=O)N[C@H](Cc2ccccc2)C(=O)N[C@@H](CCCNC(=N)N)C(=O)N[C@@H](Cc2c[nH]c3ccccc23)C(=O)N1)C(N)=O` [1N-(1-carbamoyl-2-hydroxypropyl)-16-[3-amino(imino)methylaminopropyl]-7-(1-amino-2-phenylethylcarboxamido)-13-benzyl-10-(1H-5-imidazolylmethyl)-19-(1H-3-indolylmethyl)-8,11,14,17,20-pentaoxo-4,5-dithia-9,12,15,18,21-pentaazacyclohenicosane-1-carb] yielded an EC50 of 1 µM.

`C[C@@H](O)[C@H](NC(=O)[C@H]1CSSC[C@H](NC(=O)[C@@H](N)Cc2ccccc2)C(=O)N[C@@H](Cc2cnc[nH]2)C(=O)N[C@H](Cc2ccccc2)C(=O)N[C@@H](CCCNC(=N)N)C(=O)N[C@H](Cc2c[nH]c3ccccc23)C(=O)N1)C(N)=O` [1N-(1-carbamoyl-2-hydroxypropyl)-15-[3-amino(imino)methylaminopropyl]-6-(1-amino-2-phenylethylcarboxamido)-12-benzyl-9-(1H-5-imidazolylmethyl)-18-(1H-3-indolylmethyl)-7,10,13,16,19-pentaoxo-3,4-dithia-8,11,14,17,20-pentaazacycloicosane-1-carboxam]: the EC50 was found to be 3 µM.

Regarding `C[C@H](O)[C@@H](NC(=O)[C@H]1CSSC[C@H](NC(=O)[C@H](N)Cc2ccccc2)C(=O)N[C@@H](Cc2cnc[nH]2)C(=O)N[C@@H](Cc2ccc(Cl)cc2)C(=O)N[C@@H](CCCNC(=N)N)C(=O)N[C@H](Cc2c[nH]c3ccccc23)C(=O)N1)C(N)=O` [1N-(1-carbamoyl-2-hydroxypropyl)-15-[3-amino(imino)methylaminopropyl]-6-(1-amino-2-phenylethylcarboxamido)-12-(4-chlorobenzyl)-9-(1H-5-imidazolylmethyl)-18-(1H-3-indolylmethyl)-7,10,13,16,19-pentaoxo-3,4-dithia-8,11,14,17,20-pentaazacycloicosane-], the EC50 was 0.03 µM.

`C[C@@H](O)[C@H](NC(=O)[C@@H]1CSSCC[C@H](NC(=O)[C@H](N)Cc2ccccc2)C(=O)N[C@@H](Cc2cnc[nH]2)C(=O)N[C@H](Cc2ccccc2)C(=O)N[C@@H](CCCNC(=N)N)C(=O)N[C@@H](Cc2c[nH]c3ccccc23)C(=O)N1)C(N)=O` [H-D-Phe-c[Hcy-His-D-Phe-Arg-Trp-Cys]-Thr-NH2] showed an EC50 of 0.0003 µM.

The molecule `C[C@@H](O)[C@H](NC(=O)[C@H]1NC(=O)[C@H](Cc2c[nH]c3ccccc23)NC(=O)[C@H](CCCNC(=N)N)NC(=O)[C@@H](Cc2ccccc2)NC(=O)[C@H](Cc2cnc[nH]2)NC(=O)[C@@H](NC(=O)[C@H](N)Cc2ccccc2)CSSC1(C)C)C(N)=O` [H-D-Phe-c[Cys-His-D-Phe-Arg-Trp-Pen]-Thr-NH2] registered a half-maximal effective concentration (EC50) of 0.1 µM.

The molecule `C[C@@H](O)[C@H](NC(=O)[C@@H]1CCCCNC(=O)C[C@H](NC(=O)[C@H](N)Cc2ccccc2)C(=O)N[C@@H](Cc2cnc[nH]2)C(=O)N[C@H](Cc2ccccc2)C(=O)N[C@@H](CCCNC(=N)N)C(=O)N[C@@H](Cc2c[nH]c3ccccc23)C(=O)N1)C(N)=O` [1N-(1-carbamoyl-2-hydroxypropyl)-7-[3-amino(imino)methylaminopropyl]-16-(1-amino-2-phenylethylcarboxamido)-10-benzyl-13-(1H-5-imidazolylmethyl)-4-(1H-3-indolylmethyl)-3,6,9,12,15,18-hexaoxo-2,5,8,11,14,19-hexaazacyclotricosane-1-carboxamide] had an EC50 of 0.0001 µM.

As for `C[C@@H](O)[C@H](NC(=O)[C@@H]1CSSC[C@H](NC(=O)[C@H](N)Cc2ccccc2)C(=O)N[C@@H](Cc2cnc[nH]2)C(=O)N[C@@H](Cc2ccc(F)cc2)C(=O)N[C@@H](CCCNC(=N)N)C(=O)N[C@H](Cc2c[nH]c3ccccc23)C(=O)N1)C(N)=O` [1N-(1-carbamoyl-2-hydroxypropyl)-15-[3-amino(imino)methylaminopropyl]-6-(1-amino-2-phenylethylcarboxamido)-12-(4-fluorobenzyl)-9-(1H-5-imidazolylmethyl)-18-(1H-3-indolylmethyl)-7,10,13,16,19-pentaoxo-3,4-dithia-8,11,14,17,20-pentaazacycloicosane-], the EC50 turned out to be 1 µM.
